Laboratory results as given in ChEMBL document CHEMBL4482308, “Ghrelin o-acyltransferase inhibitors” (2017).
Calls of active or inactive are those of the source. The rule behind the calls is not given here.

Experiments:
[1] = Cytotoxicity in HEK293FT cells co-expressing mouse GOAT and pre-proghrelin assessed as reduction in cell viability incubated for 24 hrs by alamar blue assay; format: cell-based; conditions: human, read-out: LD50
[2] = target: T1, Membrane-bound ghrelin O-acyltransferase MBOAT4 (Mus musculus) (UniProt P0C7A3); experiment: Inhibition of mouse GOAT expressed in HEK293FT cells co-expressing pre-proghrelin assessed as reduction in ghrelin octanoylation up to 1 uM incubated for 24 hrs by ELISA; format: cell-based
T1 sequence (whole entry): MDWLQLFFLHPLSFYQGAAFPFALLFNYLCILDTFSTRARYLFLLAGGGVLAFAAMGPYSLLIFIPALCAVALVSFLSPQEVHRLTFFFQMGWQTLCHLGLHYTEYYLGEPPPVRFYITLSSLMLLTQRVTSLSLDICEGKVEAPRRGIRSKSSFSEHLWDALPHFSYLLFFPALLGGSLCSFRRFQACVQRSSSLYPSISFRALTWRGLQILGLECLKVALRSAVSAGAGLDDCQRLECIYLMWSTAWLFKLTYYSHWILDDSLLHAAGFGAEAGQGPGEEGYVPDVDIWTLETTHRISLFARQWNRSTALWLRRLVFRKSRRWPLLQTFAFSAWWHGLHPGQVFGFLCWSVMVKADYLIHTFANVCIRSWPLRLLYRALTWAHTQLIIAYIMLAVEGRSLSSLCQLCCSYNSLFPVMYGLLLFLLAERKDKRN

Row | SMILES | CC50 at 24 h [1] | inhibition [2]
1 | COC(=O)[C@]12CCC(C)(C)C[C@H]1[C@H]1C(=O)C=C3[C@@]4(C)C=C(C#N)C(=O)C(C)(C)[C@@H]4CC[C@@]3(C)[C@]1(C)CC2 [BARDOXOLONE METHYL] | ≥ 10 µM | –
2 | CC1(C)CC[C@]2(C(=O)O)CC[C@]3(C)[C@H](C(=O)C=C4[C@@]5(C)C=C(C#N)C(=O)C(C)(C)[C@@H]5CC[C@]43C)[C@@H]2C1 | – | inactive
3 | CCNC(=O)[C@]12CCC(C)(C)C[C@H]1[C@H]1C(=O)C=C3[C@@]4(C)C=C(C#N)C(=O)C(C)(C)[C@@H]4CC[C@@]3(C)[C@]1(C)CC2 | ≥ 10 µM | –
